Experiments:
Format in all cases: in vivo
[1] = system: ZEAMA = Zea mays (maize); test: Post-emergence treatment, safening by (Ib), visual injury score in maize (Table 1)
Method: 3.2 Effect of the Herbicide and Effect of the Safener when Applied Pre-Emergence Seeds or rhizome pieces of mono- and dicotyledenous harmful plants and of crop plants are placed in sandy loam soil in plastic pots, covered with soil and cultivated in a greenhouse under good growth conditions. Alternatively, harmful plants encountered in paddy rice cultivation are cultivated in pots where the water level is up to 2 cm above the soil surface. Three weeks after sowing, the test plants are treated at the three-leaf stage. […] In a series of trials the ability of herbicides to be […] by safener (Ib) was evaluated.

[2] = system: TRZAS, Triticum aestivum (wheat); test: Pre-emergence application of herbicide-safener combination, visual injury score in wheat (Table 2); settings: application rate 300 g a.i./ha
Method: (§1) The damage to the plants is assessed visually on a scale of 0–100% in comparison with control plants: • 0%=no noticeable effect in comparison with the untreated plant • 100%=the treated plant dies off. 3.2 Effect of the Herbicide and Effect of the Safener when Applied Pre-Emergence
(§2) Seeds or rhizome pieces of mono- and dicotyledonous harmful plants and of crop plants are placed in sandy loam soil in plastic pots of a diameter of 9 cm and covered with soil. Alternatively, harmful plants encountered in paddy rice cultivation are cultivated in water-saturated soil, where the amount of water poured into the pots is such that the water level is at the soil surface, or some millimeters above the soil surface. The herbicide/safener active compound combinations according to the invention, formulated in the form of emulsion concentrates, and, in parallel tests, the correspondingly formulated individual active compounds are then applied as emulsions to the surface of the soil cover in various dosages using an amount of water of 300 l/ha (converted), or, in the case of rice, are poured into the irrigation water. After the treatment, the pots are placed in a greenhouse and kept under good growth conditions for the weeds. […]

[3] = system: HORVS = Hordeum vulgare (barley); test: Pre-emergence application of herbicide-safener combination, visual injury score in barley (Table 3); settings: application rate 300 g a.i./ha (herbicide alone)
Method: as §1, §2

Structure (SMILES): CCOc1nc(F)cc2nc(S(=O)(=O)Nc3c(Cl)cccc3C(=O)OC)nn12 [(B1-2), methyl 3-chloro-(5-ethoxy-7-fluoro[1,2,4]triazole-[1,5-c]pyrimidin-2-ylsulfonamido)-benzoate]
- % injury to ZEAMA ([1]; application rate 30 g a.i./ha): 32%

Structure (SMILES): Nc1c(Cl)c(F)nc(OCC(=O)O)c1Cl [(B2-4), 4-amino-3,5-dichloro-6-fluoro-2-pyridyloxyacetic acid]
- % injury to ZEAMA ([1]; application rate 160 g a.i./ha): 9%

Structure (SMILES): O=C(O)COc1nc(Cl)c(Cl)cc1Cl [(B2-3), 3,5,6-trichloro-2-pyridyloxyacetic acid]
- % injury to ZEAMA ([1]; application rate 420 g a.i./ha): 22%

Structure (SMILES): CSc1nnc(C(C)(C)C)c(=O)n1N [(B3-1), 4-amino-6-tert-butyl-4,5-dihydro3-methylthio-1,2,4-triazin-5-one]
- % injury to ZEAMA ([1]; application rate 560 g a.i./ha): 23%

Structure (SMILES): CCOC(=O)C(Cl)Cc1cc(-n2nc(C)n(C(F)F)c2=O)c(F)cc1Cl (racemic) [(B4-1), ethyl (RS)-2-chloro-3-[2-chloro-5-(4-difluoromethyl-4,5-dihydro-3-methyl-5-oxo-1H-1,2,4-triazol-1-yl)-4-fluorophenyl]propionate]
- % injury to ZEAMA ([1]; application rate 36 g a.i./ha): 11%

Structure (SMILES): CCc1cccc(C)c1N(C(=O)CCl)[C@@H](C)COC [(B5-1)]
- % injury to TRZAS [2]: 70%
- % injury to HORVS [3]: 15%

Structure (SMILES): COc1ncc(F)c2nc(S(=O)(=O)Nc3c(F)cccc3F)nn12 [(B1-1), N-(2,6difluorophenyl)-8-fluoro-5-methoxy-1,2,4-triazolo[1,5-c]pyrimidin-2-sulfonamide]
- % injury to ZEAMA ([1]; application rate 10 g a.i./ha): 18%

From US7098169B2, “Herbicide-safener combination based on isoxazoline carboxylate safeners” (Bayer CropScience GmbH, priority 2001, dated 2006)
